According to ChEMBL document CHEMBL1145591, “Synthesis of new UV-B light absorbents: (Acetylphenyl)glycosides with antioxidant activities” (Bioorg Med Chem Lett, 2008):

Test: Antioxidant activity after 1 hr by cytochrome-c reduction assay
Format: functional
Design: scale not given: the % may be the effect or the level left

| Compound | Activity |
| --- | --- |
| CC(=O)c1cccc(O[C@@H]2O[C@H](CO)[C@@H](O)[C@H](O)[C@@H]2O)c1 | 71.5% |
| CC(=O)c1cccc(O[C@H]2O[C@H](CO)[C@@H](O)[C@H](O)[C@@H]2O)c1 | 66.9% |
| CC(=O)c1cccc(O[C@@H]2O[C@H](CO)[C@@H](O)[C@H](O)[C@H]2O)c1 | 51.7% |
| CC(=O)c1cccc(O)c1 | 0% |
